Measurements reported in US11629201B2, “PSMA-binding agents and uses thereof” (ITM Isotope Technologies Munich SE, priority 2017, dated 2023).

System: PC-3 PIP/flu tumor-bearing mice
Assay: Biodistribution studies in PC-3 PIP/flu tumor-bearing mice
Details: for Tumor-to-blood / Tumor-to-kidney / Tumor-to-liver: PC-3 PIP tumor

Compound: O=C(O)CCC(NC(=O)NC(CCCCNC(=O)C(Cc1ccc2ccccc2c1)NC(=O)C1CCC(n2cc(CC(NC(=O)CN3CCN(CC(=O)O)CCN(CC(=O)O)CCN(CC(=O)O)CC3)C(=O)NC(CCCCNC(=O)CCCc3ccc(I)cc3)C(=O)O)nn2)CC1)C(=O)O)C(=O)O (stereo not shown) [^177Lu-PSMA-ALB-01, metal not drawn]
- Tumor-to-blood (1 h p.i.): 0.30 ± 0.06
- Tumor-to-kidney (1 h p.i.): 0.46 ± 0.04
- Tumor-to-liver (1 h p.i.): 1.56 ± 0.30
- Blood (4 h p.i.): 25.6 ± 1.53 % IA/g
- Bone (4 h p.i.): 3.01 ± 0.09 % IA/g
- Heart (4 h p.i.): 8.71 ± 0.50 % IA/g
- Intestines (4 h p.i.): 4.17 ± 0.70 % IA/g
- Kidneys (4 h p.i.): 24.6 ± 0.38 % IA/g
- Liver (4 h p.i.): 5.92 ± 0.07 % IA/g
- Lung (4 h p.i.): 14.1 ± 0.99 % IA/g
- Muscle (4 h p.i.): 2.06 ± 0.80 % IA/g
- PC-3 PIP Tumor (4 h p.i.): 20.4 ± 0.39 % IA/g
- PC-3 flu Tumor (4 h p.i.): 5.03 ± 1.61 % IA/g
- Salivary glands (4 h p.i.): 5.20 ± 0.73 % IA/g
- Spleen (4 h p.i.): 5.34 ± 0.90 % IA/g
- Stomach (4 h p.i.): 3.30 ± 0.05 % IA/g
- Tumor-to-blood (4 h p.i.): 0.80 ± 0.03
- Tumor-to-kidney (4 h p.i.): 0.83 ± 0.03
- Tumor-to-liver (4 h p.i.): 3.45 ± 0.03
- Blood (8 h p.i.): 21.0 ± 2.86 % IA/g
- Bone (8 h p.i.): 2.54 ± 0.26 % IA/g
- Heart (8 h p.i.): 7.16 ± 1.23 % IA/g
- Intestines (8 h p.i.): 2.44 ± 0.17 % IA/g
- Kidneys (8 h p.i.): 22.6 ± 2.38 % IA/g
- Liver (8 h p.i.): 5.31 ± 1.23 % IA/g
- Lung (8 h p.i.): 11.6 ± 0.83 % IA/g
- Muscle (8 h p.i.): 1.63 ± 0.27 % IA/g
- PC-3 PIP Tumor (8 h p.i.): 25.5 ± 2.02 % IA/g
- PC-3 flu Tumor (8 h p.i.): 4.01 ± 0.79 % IA/g
- Salivary glands (8 h p.i.): 4.45 ± 0.56 % IA/g
- Spleen (8 h p.i.): 4.05 ± 0.69 % IA/g
- Stomach (8 h p.i.): 2.45 ± 0.43 % IA/g
- Tumor-to-blood (8 h p.i.): 1.22 ± 0.08
- Tumor-to-kidney (8 h p.i.): 1.13 ± 0.07
- Tumor-to-liver (8 h p.i.): 4.97 ± 1.21
- Blood (24 h p.i.): 14.2 ± 1.40 % IA/g
- Bone (24 h p.i.): 1.58 ± 0.06 % IA/g
- Heart (24 h p.i.): 5.93 ± 0.65 % IA/g
- Intestines (24 h p.i.): 2.12 ± 0.20 % IA/g
- Kidneys (24 h p.i.): 22.7 ± 2.18 % IA/g
- Liver (24 h p.i.): 2.92 ± 0.67 % IA/g
- Lung (24 h p.i.): 8.62 ± 1.47 % IA/g
- Muscle (24 h p.i.): 1.34 ± 0.14 % IA/g
- PC-3 PIP Tumor (24 h p.i.): 38.2 ± 2.59 % IA/g
- PC-3 flu Tumor (24 h p.i.): 3.95 ± 0.82 % IA/g
- Salivary glands (24 h p.i.): 3.38 ± 0.32 % IA/g
- Spleen (24 h p.i.): 3.60 ± 0.43 % IA/g
- Stomach (24 h p.i.): 1.39 ± 0.07 % IA/g
- Tumor-to-blood (24 h p.i.): 2.71 ± 0.39
- Tumor-to-kidney (24 h p.i.): 1.69 ± 0.07
- Tumor-to-liver (24 h p.i.): 13.5 ± 2.79
- Blood (48 h p.i.): 12.0 ± 2.18 % IA/g
- Bone (48 h p.i.): 1.64 ± 0.34 % IA/g
- Heart (48 h p.i.): 4.42 ± 0.81 % IA/g
- Intestines (48 h p.i.): 1.84 ± 0.54 % IA/g
- Kidneys (48 h p.i.): 25.2 ± 4.15 % IA/g
- Liver (48 h p.i.): 3.03 ± 0.63 % IA/g
- Lung (48 h p.i.): 7.67 ± 0.83 % IA/g
- Muscle (48 h p.i.): 1.35 ± 0.46 % IA/g
- PC-3 PIP Tumor (48 h p.i.): 65.6 ± 1.84 % IA/g
- PC-3 flu Tumor (48 h p.i.): 4.64 ± 1.84 % IA/g
- Salivary glands (48 h p.i.): 3.96 ± 0.98 % IA/g
- Spleen (48 h p.i.): 4.62 ± 1.12 % IA/g
- Stomach (48 h p.i.): 1.49 ± 0.47 % IA/g
- Tumor-to-blood (48 h p.i.): 5.54 ± 0.76
- Tumor-to-kidney (48 h p.i.): 2.64 ± 0.40
- Tumor-to-liver (48 h p.i.): 22.2 ± 4.11
- Blood (96 h p.i.): 6.68 ± 0.85 % IA/g
- Bone (96 h p.i.): 1.07 ± 0.22 % IA/g
- Heart (96 h p.i.): 2.70 ± 0.37 % IA/g
- Intestines (96 h p.i.): 1.05 ± 0.17 % IA/g
- Kidneys (96 h p.i.): 13.0 ± 1.30 % IA/g
- Liver (96 h p.i.): 1.88 ± 0.36 % IA/g
- Lung (96 h p.i.): 5.07 ± 0.66 % IA/g
- Muscle (96 h p.i.): 0.82 ± 0.12 % IA/g
- PC-3 PIP Tumor (96 h p.i.): 62.3 ± 3.56 % IA/g
- PC-3 flu Tumor (96 h p.i.): 2.76 ± 0.23 % IA/g
- Salivary glands (96 h p.i.): 2.22 ± 0.38 % IA/g
- Spleen (96 h p.i.): 3.12 ± .015 % IA/g
- Stomach (96 h p.i.): 0.81 ± 0.04 % IA/g
- Tumor-to-blood (96 h p.i.): 9.39 ± 0.65
- Tumor-to-kidney (96 h p.i.): 4.80 ± 0.20
- Tumor-to-liver (96 h p.i.): 33.7 ± 4.33
- Blood (144 h p.i.): 5.78 ± 0.90 % IA/g
- Bone (144 h p.i.): 0.99 ± 0.20 % IA/g
- Heart (144 h p.i.): 2.23 ± 0.29 % IA/g
- Intestines (144 h p.i.): 1.07 ± 0.13 % IA/g
- Kidneys (144 h p.i.): 10.2 ± 3.41 % IA/g
- Liver (144 h p.i.): 1.56 ± 0.16 % IA/g
- Lung (144 h p.i.): 4.90 ± 0.58 % IA/g
- Muscle (144 h p.i.): 0.66 ± 0.15 % IA/g
- PC-3 PIP Tumor (144 h p.i.): 78.4 ± 8.57 % IA/g
- PC-3 flu Tumor (144 h p.i.): 2.82 ± 0.24 % IA/g
- Salivary glands (144 h p.i.): 1.68 ± 0.53 % IA/g
- Spleen (144 h p.i.): 4.32 ± 0.57 % IA/g
- Stomach (144 h p.i.): 0.84 ± 0.13 % IA/g
- Tumor-to-blood (144 h p.i.): 13.8 ± 2.38
- Tumor-to-kidney (144 h p.i.): 8.05 ± 1.77
- Tumor-to-liver (144 h p.i.): 50.5 ± 6.28
- Blood (192 h p.i.): 5.21 ± 1.37 % IA/g
- Bone (192 h p.i.): 0.86 ± 0.17 % IA/g
- Heart (192 h p.i.): 2.12 ± 0.68 % IA/g
- Intestines (192 h p.i.): 1.02 ± 0.25 % IA/g
- Kidneys (192 h p.i.): 7.56 ± 1.44 % IA/g
- Liver (192 h p.i.): 1.51 ± 0.37 % IA/g
- Lung (192 h p.i.): 4.12 ± 0.96 % IA/g
- Muscle (192 h p.i.): 0.64 ± 0.13 % IA/g
- PC-3 PIP Tumor (192 h p.i.): 75.6 ± 22.0 % IA/g
- PC-3 flu Tumor (192 h p.i.): 2.73 ± 0.84 % IA/g
- Salivary glands (192 h p.i.): 1.78 ± 0.34 % IA/g
- Spleen (192 h p.i.): 4.09 ± 1.12 % IA/g
- Stomach (192 h p.i.): 0.73 ± 0.12 % IA/g
- Tumor-to-blood (192 h p.i.): 14.5 ± 1.84
- Tumor-to-kidney (192 h p.i.): 9.87 ± 1.05
- Tumor-to-liver (192 h p.i.): 50.2 ± 7.38
